Experimental data reported in patent publication EP0340198B1, “Immunoassay for the detection of alpha-haloacetamides” (priority 1988, dated 1989).

Key:
alachlor antibodies = experiment: inhibition ELISA for alachlor (cross-reactivity studies); assay type: binding, rabbit; conditions: for reaction (cross-reactivity) with the antibodies, in words: relative to alachlor
Method: Immunoassays. A known "checkerboard assay" was initially conducted with each serum sample after the first boost to detect the production of antibodies against alachlor. […] The next 7 rows received the subsequent dilutions of the screening antigen. The plate was covered with Parafilm and stored overnight at 4°C. The next morning, the unbound screening antigen was removed from the wells by washing three times with phosphate buffered saline solution (0.01 M phosphate buffer of pH 7.4, 0.15 M NaCl; PBS). The remaining active sites in the wells were blocked with PBS-8% non-fat dry milk solution, (NFDM, 0.3 mL) for 1 hr at 22°C. Serum, which had been stored at -20°C, was freshly thawed and serially diluted (one to two) from 1,000 to 64,000-fold using PBS-T (PBS containing 0.02% Tween 20). Starting with the most concentrated solution, 0.1 mL of the serum solution was pipetted into all 8 wells of column 1; the remaining columns received the subsequent dilutions of the serum solution. The plate was covered and incubated at 22°C for 1.5 hrs. Following triplicate washes of the wells with PBS-T, each of the wells received 0.1 mL of goat anti-rabbit gamma-globulin conjugated to horseradish peroxidase (GAR-HRP) freshly thawed and diluted 4,000 fold with PBS-1% NFDM. After a final wash cycle (4 times) with PBS-T, freshly prepared O-phenylene diamine (PDA) substrate solution (0.2 mL, 0.04 mg/mL PDA and 0.01% H₂O₂ in 0.05 M citric acid and 0.15 M sodium dibasic phosphate, pH 5.0) was dispensed into each of the wells and incubated in the dark at 22°C for 30-60 min. Sulfuric acid (4 N, 50 µL) was added to each of the wells to stop the reaction, and the final absorbances of the wells (490 nm) were recorded.
The inhibition ELISA required one additional step in the assay procedure described above. Equal volumes of the diluted serum and aqueous alachlor standard or unknown sample were mixed and preincubated at 22°C for 1 hr. This mixture (0.1 mL/well) was then analyzed in 6 replicate wells on the plate. The presence of free alachlor inhibited the binding of the antibody to the alachlor-BSA conjugate, resulting in an inhibition of the development of absorbance at 490 nm. The amount of free alachlor was indirectly proportional to the intensity of color developed. Levels of alachlor in unknown water samples were calculated based on the alachlor standards on the same plate. Alachlor standards (0, 0.2, 0.5, 1.0, 3.0, 5.0, and 8.0 ppb in deionized water) were stored at -20°C in 1-mL portions, and were freshly thawed for each assay.
Data Calculations. The lay-out of a typical 96-well microtiter plate is 8 rows of 12 columns in an inhibition ELISA assay for alachlor. The first 6 wells in the first column of wells were not coated with the screening antigen and served as the background wells. The first 6 wells in the remaining 7 columns of wells were reserved for the seven alachlor standards (0 to 8 ppb) listed above. The remaining wells in all 8 rows were used for the samples. The uncorrected absorbances of the wells determined by the Bio-tek reader were used in the following calculations. The median was calculated for the 6 replicate background wells and was then subtracted from the medians of the standards and samples. All the median values were divided by the median of the standard without alachlor (0 ppb) to generate percentages of absorbances. The percent absorbance of the alachlor standards was then plotted on the Y axis against the logarithm (base 10) of the actual concentrations of alachlor on the X axis. A hyperbolic curve was drawn through the standards, and the resulting standard curve was used to calculate the concentrations of alachlor in the unknown samples.
The calculations described above were usually carried out using a computer program.

[1] = test system: antibodies toward butachlor; experiment: inhibition ELISA for butachlor; assay type: binding, rabbits; conditions: for inhibition of the ELISA assay for butachlor: standard solutions at 10 and 50 ppb in DI water
Source text: (§1) The generation of antibodies toward butachlor (2-chloro-2′,6′-diethyl-N-(butoxymethyl)acetanilide), amidochlor (2-chloro-2′,6′-diethyl-N-acetamidomethyl acetanilide), and metolachlor (2-chloro-2′-ethyl-6′-methyl-N-(2-methoxy-1-methylethyl)acetanilide) were accomplished following identical procedures as those described for alachlor. The individual 14C-labeled chloroacetanilide was covalently bound to HSA (human serum albumin) with AHT, and to sheep IgG with AMSA.
(§2) The hapten-IgG conjugates were used to immunize rabbits. The corresponding hapten-BSA conjugates were then utilized in checkerboard assays to determine the presence of desired antibodies in the antisera. An inhibition ELISA for butachlor was set up with antiserum, butachlor-HSA screening antigen, and butachlor. Similar assays were also set up for amidochlor and metolachlor.
(§3) The sensitivity of the inhibition ELISA for butachlor, amidochlor, and metolachlor was tested with respective standards prepared in DI water. Using the best antiserum, the butachlor ELISA produced an IC50 of 8 ppb.
(§4) The specificity of the ELISA for butachlor, amidochlor, and metolachlor were tested using standard solutions of alachlor, acetochlor, butachlor, amidochlor, metolachlor, and propachlor at concentrations of 10 and 50 ppb in DI water. At these concentrations, the ELISA assay for butachlor, amidochlor, and metolachlor was each inhibited only by the respective free hapten, and not by any of the other chloroacetanilides.

[2] = test system: antibodies toward metolachlor; experiment: inhibition ELISA for metolachlor; assay type: binding, rabbits; conditions: for inhibition of the ELISA assay for metolachlor: standard solutions at 10 and 50 ppb in DI water
Source text: as §1, §2, §3, §4

[3] = test system: antibodies toward amidochlor; experiment: inhibition ELISA for amidochlor; assay type: binding, rabbits; conditions: for inhibition of the ELISA assay for amidochlor: standard solutions at 10 and 50 ppb in DI water
Source text: as §1, §2, §3, §4

[4] = test system: antibodies isolated from the serum of the first bleed of the rabbit; experiment: affinity column binding of 14C-labeled analytes from aqueous solution; conditions: 14C-labeled analogs, test of non-specific binding
Method: Affinity Chromatography. The preparation of affinity columns using rabbit antisera was as follows: The rabbit IgG's were purified by passing 5 mL of the antiserum through a column containing 5 mL of the swelled protein A-agarose gel. By monitoring the absorbance at 280 nm in the column effluent, the non-bound proteins were removed by washing with PBS, and the IgG's were then eluted with acetic acid at pH 2.3 (0.58% acetic acid and 0.15 M NaCl). The fractions containing the IgG's were combined and neutralized; based on the UV absorbance at 280 nm (absorbance/1.4 = mg/mL protein), approximately 33 mg of IgG were isolated from 5 mL of serum, which was then lyophilized and stored at -20°C. The reusable protein A-agarose column was stored in PBS containing 0.02% sodium azide at 4°C.
The protein A-purified IgG was immobilized onto Affigel-10 affinity support. Affigel-10 (5 mL) was washed 3 times with isopropyl alcohol and 3 times with cold distilled water in a Buchner funnel. The gel was then added to a solution of IgG (3 mL in 0.1 M HEPES buffer, pH 7.5) at 4°C. Following 4 hrs of stirring, the gel was precipitated by gentle centrifugation and washed with HEPES buffer (3 x 3 mL). The remaining active sites on the gel were blocked by resuspending the gel in water (2 mL) and adding ethanolamine HCl (0.5 mL, 1M), and stirring the mixture at 22°C for 1 hr. The affinity column was useful in adsorbing alachlor and other analytes from aqueous solutions. After binding the alachlor, the column was washed with water (2 mL/min) to remove unbound material and alachlor was eluted with 75% aqueous methanol.
Using the antibodies isolated from the serum of the first bleed of the rabbit, an affinity column for alachlor was constructed to study its utility as an isolation and purification tool. The IgG's in the serum of the rabbit immunized with the alachlor-IgG conjugate were purified with a protein A-agarose column. The purified IgG was then immobilized onto the Affigel-10 support. Alachlor (¹⁴C-labeled) in aqueous solution was passed through the column with a flow rate of 2 mL/min; the column was washed with water and eluted with 75% aqueous methanol. The radioactivity in the wash and eluent were determined by liquid scintillation counting. […] The capacity of the column was less than 1 µg, and once this level was exceeded, alachlor no longer bound to the column. The recovery of applied radioactivity generally ranged from 80% to 100%. In a second experiment, alachlor (0.5 µg) was dissolved into increasing volumes of water ranging from 1 mL to 100 mL.
To eliminate the possibility of non-specific binding of alachlor to the affinity column, other ¹⁴C-labeled analogs were also studied. These included acetanilide herbicides butachlor, acetochlor, metolachlor, and propachlor and the previously mentioned alachlor metabolites mercapturate and its methyl ester. The affinity column bound butachlor and acetochlor, but not metolachlor, propachlor, or mercapturate.

[5] = IC50 of alachlor divided by IC50 of analog x 100, bleed not stated

Molecule | reaction (cross-reactivity) with the antibodies, in words (alachlor antibodies) | percent cross-reactivity (alachlor antibodies; [5]) | further results
CCc1cccc(CC)c1N(COC)C(=O)CS(=O)(=O)CCO | no cross-reactivity | – | –
CCc1cccc(CC)c1N(COC)C(=O)CSC | strong interaction | 188% | –
CCc1cccc(CC)c1NC(=O)CSC | no cross-reactivity | – | –
CCc1cccc(CC)c1N [2,6-diethylaniline] | no reaction | – | –
CCc1cccc(CC)c1N(COC)C(=O)C[S+]([O-])CC(NC(C)=O)C(=O)O (stereo not shown) [S=O derivative] | significantly reduced or eliminated | – | –
CCc1cccc(CC)c1N(CNC(C)=O)C(=O)CCl [amidochlor, 2-chloro-2′,6′-diethyl-N-acetamidomethyl acetanilide] | little to no interaction | – | inhibition of the ELISA assay for butachlor [1]: not; inhibition of the ELISA assay for metolachlor [2]: not; IC50 ([3]; amidochlor-HSA as the screening antigen, standards in DI water): 2 ppb; IC50 ([3]; butachlor-HSA substituted for amidochlor-HSA as the screening antigen): 0.2 ppb; inhibition of the ELISA assay for amidochlor [3]: inhibited
CCCCOCN(C(=O)CCl)c1c(CC)cccc1CC [butachlor, 2-chloro-2′,6′-diethyl-N-(butoxymethyl)acetanilide] | little to no interaction | – | binding by the affinity column [4]: bound; IC50 ([1]; best antiserum, butachlor-HSA screening antigen, standards in DI water): 8 ppb; inhibition of the ELISA assay for butachlor [1]: inhibited; inhibition of the ELISA assay for metolachlor [2]: not; inhibition of the ELISA assay for amidochlor [3]: not
CCc1cccc(CC)c1N(COC)C(=O)CSCC(NC(=O)CCC(N)C(=O)O)C(=O)NCC(=O)O (stereo not shown) [glutathione conjugate of alachlor] | – | 27.5% | –
CCc1cccc(CC)c1N(COC)C(=O)CSCC(NC(C)=O)C(=O)O (stereo not shown) [mercapturate analog] | – | – | percent cross-reactivity (alachlor antibodies; bleed four): 18%; percent cross-reactivity (alachlor antibodies; bleed seven): 65%; binding by the affinity column [4]: not
CCc1cccc(CC)c1N(COC)C(=O)CSCC(NC(C)=O)C(=O)OC (stereo not shown) [methyl ester of the mercapturate] | – | 89.7% | binding by the affinity column [4]: Binding was observed
CCc1cccc(C)c1N(C(=O)CCl)C(C)COC (stereo not shown) [metolachlor, 2-chloro-2′-ethyl-6′-methyl-N-(2-methoxy-1-methylethyl)acetanilide] | little to no interaction | – | binding by the affinity column [4]: not; inhibition of the ELISA assay for butachlor [1]: not; IC50 ([2]; best antiserum, standards in DI water): 8 ppb; inhibition of the ELISA assay for metolachlor [2]: inhibited; inhibition of the ELISA assay for amidochlor [3]: not
CCc1cccc(CC)c1N(COC)C(C)=O [norchloro-alachlor] | – | 22% | –
CCc1cccc(CC)c1NC(=O)CSCC(NC(C)=O)C(=O)O (stereo not shown) [secondary amide mercapturate] | significantly reduced or eliminated | – | –
CCc1cccc(CC)c1N(COC)C(=O)CS(C)(=O)=O [sulfone analog] | – | 9% | –
CCc1cccc(CC)c1N(COC)C(=O)CS(=O)(=O)O [sulfonic acid] | little reaction | less than 2.5% | –
CCc1cccc(CC)c1N(COC)C(=O)C[S+](C)[O-] (stereo not shown) [sulfoxide analog] | – | 15% | –
CCc1cccc(CC)c1N(COC)C(=O)CSCC(=O)O [thioacetic acid conjugate of alachlor] | – | 57.0% | –
CCc1cccc(CC)c1NC(=O)CCl [α-chloro-2′,6′-diethylacetanilide] | no reaction | – | –
oxanilic acid | little reaction | less than 2.5% | –
